The test system of test [1] is Mycosphaerella graminicola; Anamorph: Septoria tritici. In words: Leaf Blotch of Wheat fungicidal activity (SEPTTR). Conditions: Zymoseptoria tritici; for pest or weed control at 100 ppm: rate 100 ppm; for pest or weed control at 121.5 g/ha: rate 121.5 g/H. It counts as in vivo. On the procedure: Evaluation of Fungicidal Activity: Leaf Blotch of Wheat (Mycosphaerella graminicola; Anamorph: Septoria tritici; Bayer code […]) Technical grades of materials were dissolved in acetone, which were then mixed with nine volumes of water containing 110 ppm Triton X-100. The fungicide solutions were applied onto wheat seedlings using an automated booth sprayer to run-off. All sprayed plants were allowed to air dry prior to further handling. All fungicides were evaluated using the aforementioned method for their activity vs. all target diseases. Wheat leaf blotch and brown rust activity were also evaluated using track spray applications, in which case the fungicides were formulated as EC formulations, containing 0.1% Trycol 5941 in the spray solutions. Wheat plants (variety Yuma) were grown from seed in a greenhouse in 50% mineral soil/50% soil-less Metro mix until the first leaf was fully emerged, with 7-10 seedlings per pot. These plants were inoculated with an aqueous spore suspension of Septoria tritici either prior to or after fungicide treatments. After inoculation the plants were kept in 100% relative humidity (one day in a dark dew chamber followed by two to three days in a lighted dew chamber at 20° C.) to permit spores to germinate and infect the leaf. The plants were then transferred to a greenhouse set at 20° C. for disease to develop. When disease symptoms were fully expressed on the 1st leaves of untreated plants, infection levels were assessed on a scale of 0 to 100 percent disease severity. Percent disease control was calculated using the ratio of disease severity on treated plants relative to untreated plants.

In a further test the test system is Puccinia triticina. The experiment in a line: Wheat Brown Rust fungicidal activity (PUCCRT). Conditions: Puccinia triticina; for pest or weed control at 100 ppm: rate 100 ppm; for pest or weed control at 121.5 g/ha: rate 121.5 g/H. It counts as in vivo. The method, then: Technical grades of materials were dissolved in acetone, which were then mixed with nine volumes of water containing 110 ppm Triton X-100. The fungicide solutions were applied onto wheat seedlings using an automated booth sprayer to run-off. All sprayed plants were allowed to air dry prior to further handling. All fungicides were evaluated using the aforementioned method for their activity vs. all target diseases. Wheat leaf blotch and brown rust activity were also evaluated using track spray applications, in which case the fungicides were formulated as EC formulations, containing 0.1% Trycol 5941 in the spray solutions. Wheat plants (variety Yuma) were grown from seed in a greenhouse in 50% mineral soil/50% soil-less Metro mix until the first leaf was fully emerged, with 7-10 seedlings per pot. These plants were inoculated with an aqueous spore suspension of Septoria tritici either prior to or after fungicide treatments. After inoculation the plants were kept in 100% relative humidity (one day in a dark dew chamber followed by two to three days in a lighted dew chamber at 20° C.) to permit spores to germinate and infect the leaf. The plants were then transferred to a greenhouse set at 20° C. for disease to develop. When disease symptoms were fully expressed on the 1st leaves of untreated plants, infection levels were assessed on a scale of 0 to 100 percent disease severity. Percent disease control was calculated using the ratio of disease severity on treated plants relative to untreated plants. Evaluation of Fungicidal Activity: Wheat Brown Rust (Puccinia triticina; Synonym: Puccinia recondite f sp. tritici; Bayer code PUCCRT) Wheat plants (variety Yuma) were grown from seed in a greenhouse in 50% mineral soil/50% soil-less Metro mix until the first leaf was fully emerged, with 7-10 seedlings per pot. These plants were inoculated with an aqueous spore suspension of Puccinia triticina either prior to or after fungicide treatments. After inoculation the plants were kept in a dark dew room at 22° C. with 100% relative humidity overnight to permit spores to germinate and infect the leaf. The plants were then transferred to a greenhouse set at 24° C. for disease to develop. Fungicide formulation, application and disease assessment followed the procedures as described in the Example A.

[2] abbreviates: 24 h, 1 Day Protectant, read-out: Disease control SEPTTR 1DP.
The mark [3] stands for this setting: 72 h, 3 Day Curative, read-out: Disease control SEPTTR 3DC.
[4] abbreviates: 24 h, 1 Day Protectant, read-out: Disease control PUCCRT 1DP.
Setting [5] is: 72 h, 3 Day Curative, read-out: Disease control PUCCRT 3DC.

Read-outs that look alike come from different tables or passages of the source.

Consider 17 molecules from patent publication US9179674B2, “Macrocyclic picolinamide compounds with fungicidal activity” (DOW AGROSCIENCES LLC, priority 2013, dated 2015).

On to `COc1ccnc(C(=O)N[C@H]2COC[C@H](CCC(C)C)[C@@H](OC(=O)C3CC3)[C@H](C)OC2=O)c1O` [Compound F36], for which the pest or weed control at 100 ppm in test [1] (setting [2]) lay in the range of 80 to 100%; in test [1] (setting [3]), 80 to 100%; with Puccinia triticina (setting [4]) it was 80 to 100%; in the test with Puccinia triticina (setting [5]) it was 0 to 80%.
As to `COc1ccnc(C(=O)N[C@H]2COC[C@H](CCC(C)C)[C@@H](OC3CCCC3)[C@H](C)OC2=O)c1O` [Compound F39], the pest or weed control at 100 ppm (in test [1] (setting [2]); in test [1] (setting [3]); in the test with Puccinia triticina (setting [4]); with Puccinia triticina (setting [5])) was 80 to 100% throughout.
In the case of `COc1ccnc(C(=O)N[C@H]2COC[C@H](Cc3ccc(C(F)(F)F)cc3)[C@@H](OC3CCCC3)[C@H](C)OC2=O)c1OC(C)=O` [Compound F66], the pest or weed control at 100 ppm in test [1] (setting [2]) lay in the range of 80 to 100%; in test [1] (setting [3]), 0 to 80%; with Puccinia triticina (setting [4]), 80 to 100%; with Puccinia triticina (setting [5]), 0 to 80%. The pest or weed control at 121.5 g/ha lay within 80 to 100% in test [1] (setting [2]), 0 to 80% in test [1] (setting [3]), 80 to 100% in the test with Puccinia triticina (setting [4]) and 0 to 80% in the test on Puccinia triticina (setting [5]).
For the molecule `CCCO[C@@H]1[C@@H](Cc2ccc(C(F)(F)F)cc2)COC[C@H](NC(=O)c2nccc(OC)c2OCOC(=O)COCC)C(=O)O[C@H]1C` [Compound F120, ((4-methoxy-2-(((3S,7S,8R,9S)-9-methyl-2-oxo-8-propoxy-7-(4-(trifluoromethyl)benzyl)-1,5-dioxonan-3-yl)carbamoyl)pyridin-3-yl)oxy)methyl 2-ethoxyacetate], the pest or weed control at 100 ppm in test [1] (setting [2]) was 80 to 100%; in test [1] (setting [3]) it was 80 to 100%; with Puccinia triticina (setting [4]), 80 to 100%; in the test on Puccinia triticina (setting [5]) it was 0 to 80%.
In the case of `COc1ccnc(C(=O)N[C@H]2COC[C@H](CCC(C)C)[C@@H](OCC(C)C)[C@H](C)OC2=O)c1O` [Compound F34], the pest or weed control at 100 ppm (in test [1] (setting [2]); in test [1] (setting [3]); in the test on Puccinia triticina (setting [4]); with Puccinia triticina (setting [5])) was 80 to 100% in each case.
Turning to `COc1ccnc(C(=O)N[C@H]2COC[C@H](Cc3ccc(C)cc3)[C@@H](OCCCC(F)(F)F)[C@H](C)OC2=O)c1OC(C)=O` [Compound F62], the pest or weed control at 100 ppm (in test [1] (setting [2]); in test [1] (setting [3]); in the test with Puccinia triticina (setting [4]); in the test on Puccinia triticina (setting [5])) was 80 to 100% throughout. Also, the pest or weed control at 121.5 g/ha in test [1] (setting [2]) is 80 to 100%; in test [1] (setting [3]) it was 80 to 100%; in the test on Puccinia triticina (setting [4]), 80 to 100%; in the test with Puccinia triticina (setting [5]), 0 to 80%.
For the molecule `CCCCCO[C@@H]1[C@@H](Cc2ccc(C(F)(F)F)cc2)COC[C@H](NC(=O)c2nccc(OC)c2O)C(=O)O[C@H]1C` [Compound F31], the values for the pest or weed control at 100 ppm (in test [1] (setting [2]); in test [1] (setting [3]); in the test with Puccinia triticina (setting [4])) were 80 to 100%, 0 to 80% and 0 to 80%, respectively.
Regarding `COc1ccnc(C(=O)N[C@H]2COC[C@H](Cc3ccc(C)cc3)[C@@H](OC(=O)C3CC3)[C@H](C)OC2=O)c1OCOC(C)=O` [Compound F97], the pest or weed control at 100 ppm in test [1] (setting [2]) was 80 to 100%; in test [1] (setting [3]) it was 0 to 80%; in the test on Puccinia triticina (setting [4]), 80 to 100%; in the test with Puccinia triticina (setting [5]), 80 to 100%. Further, the pest or weed control at 121.5 g/ha (in test [1] (setting [2]); in test [1] (setting [3]); with Puccinia triticina (setting [4]); in the test on Puccinia triticina (setting [5])) was 80 to 100% throughout.
As for `CCCCCO[C@@H]1[C@@H](CC2CCCC2)COC[C@H](NC(=O)c2nccc(OC)c2OCOC(C)=O)C(=O)O[C@H]1C` [Compound F116], the pest or weed control at 100 ppm (in test [1] (setting [2]); in test [1] (setting [3]); in the test with Puccinia triticina (setting [4]); in the test on Puccinia triticina (setting [5])) was 80 to 100% in each case. The pest or weed control at 121.5 g/ha (in test [1] (setting [2]); in test [1] (setting [3]); in the test with Puccinia triticina (setting [4]); with Puccinia triticina (setting [5])) was 80 to 100% in each case.
For the molecule `COc1ccnc(C(=O)N[C@H]2COC[C@H](Cc3ccc(C)cc3)[C@@H](OCCCC(F)(F)F)[C@H](C)OC2=O)c1O` [Compound F23], the pest or weed control at 100 ppm in test [1] (setting [2]) lay in the range of 80 to 100%; in test [1] (setting [3]), 0 to 80%; in the test on Puccinia triticina (setting [4]) it was 80 to 100%; with Puccinia triticina (setting [5]), 0 to 80%.
For the molecule `COc1ccnc(C(=O)N[C@H]2COC[C@H](Cc3ccc(C)cc3)[C@@H](OC(=O)C3CC3)[C@H](C)OC2=O)c1O` [Compound F22], the pest or weed control at 100 ppm (in test [1] (setting [3]); in the test with Puccinia triticina (setting [4]); in the test with Puccinia triticina (setting [5])) was 0 to 80% throughout.
For the molecule `CCCCCO[C@@H]1[C@@H](Cc2ccc(F)cc2)COC[C@H](NC(=O)c2nccc(OC)c2O)C(=O)O[C@H]1C` [Compound F19], the pest or weed control at 100 ppm (in test [1] (setting [2]); in test [1] (setting [3]); in the test with Puccinia triticina (setting [4]); with Puccinia triticina (setting [5])) was 80 to 100% in each case.
On to `CCOCC(=O)OCOc1c(OC)ccnc1C(=O)N[C@H]1COC[C@H](CC2CCCC2)[C@@H](OC(=O)C(C)C)[C@H](C)OC1=O` [Compound F121], for which the pest or weed control at 100 ppm (in test [1] (setting [2]); in test [1] (setting [3]); with Puccinia triticina (setting [4]); in the test with Puccinia triticina (setting [5])) was 80 to 100% in each case. Further, the pest or weed control at 121.5 g/ha (in test [1] (setting [2]); in test [1] (setting [3]); with Puccinia triticina (setting [4]); with Puccinia triticina (setting [5])) was 80 to 100% each time.
Turning to `COc1ccnc(C(=O)N[C@H]2COC[C@H](Cc3cc(F)c(F)c(F)c3)[C@@H](OCC(C)C)[C@H](C)OC2=O)c1O` [Compound F40], the pest or weed control at 100 ppm in test [1] (setting [2]) is 80 to 100%; in test [1] (setting [3]) it was 80 to 100%; in the test with Puccinia triticina (setting [4]), 0 to 80%.
Turning to `COc1ccnc(C(=O)N[C@H]2COC[C@H](Cc3ccc(C(F)(F)F)cc3)[C@@H](OCC(C)C)[C@H](C)OC2=O)c1OCOC(C)=O` [Compound F99], the pest or weed control at 100 ppm (in test [1] (setting [2]); in test [1] (setting [3]); in the test with Puccinia triticina (setting [4]); with Puccinia triticina (setting [5])) was 80 to 100% in each case. Moreover, the pest or weed control at 121.5 g/ha was 80 to 100% in test [1] (setting [2]), 80 to 100% in test [1] (setting [3]), 80 to 100% with Puccinia triticina (setting [4]) and 0 to 80% in the test on Puccinia triticina (setting [5]).
Consider `COc1ccnc(C(=O)N[C@H]2COC[C@H](Cc3ccc(F)cc3)[C@@H](OC3CCCC3)[C@H](C)OC2=O)c1OCOC(C)=O` [Compound F94], for which the pest or weed control at 100 ppm (in test [1] (setting [2]); in test [1] (setting [3]); in the test on Puccinia triticina (setting [4]); in the test on Puccinia triticina (setting [5])) was 80 to 100% in each case. Further, the pest or weed control at 121.5 g/ha (in test [1] (setting [2]); in test [1] (setting [3]); in the test on Puccinia triticina (setting [4]); with Puccinia triticina (setting [5])) was 80 to 100% each time.
In the case of `COc1ccnc(C(=O)N[C@H]2COC[C@H](Cc3ccc(C(F)(F)F)cc3)[C@@H](OC(=O)C(C)C)[C@H](C)OC2=O)c1OC(C)=O` [Compound F67], the pest or weed control at 100 ppm in test [1] (setting [2]) was in the range of 80 to 100%; in test [1] (setting [3]), 0 to 80%; in the test on Puccinia triticina (setting [4]), 80 to 100%; in the test on Puccinia triticina (setting [5]), 80 to 100%.
